11 molecules from ChEMBL document CHEMBL5385848, “Discovery of novel hydroxyamidine based indoleamine 2,3-dioxygenase 1 (IDO1) and thioredoxin reductase 1 (TrxR1) dual inhibitors” (Eur J Med Chem, 2023) can be followed below.

In data set [1] the target is T1, Thioredoxin reductase 1, cytoplasmic (Rattus norvegicus, UniProt O89049).
T1 sequence (O89049 whole entry): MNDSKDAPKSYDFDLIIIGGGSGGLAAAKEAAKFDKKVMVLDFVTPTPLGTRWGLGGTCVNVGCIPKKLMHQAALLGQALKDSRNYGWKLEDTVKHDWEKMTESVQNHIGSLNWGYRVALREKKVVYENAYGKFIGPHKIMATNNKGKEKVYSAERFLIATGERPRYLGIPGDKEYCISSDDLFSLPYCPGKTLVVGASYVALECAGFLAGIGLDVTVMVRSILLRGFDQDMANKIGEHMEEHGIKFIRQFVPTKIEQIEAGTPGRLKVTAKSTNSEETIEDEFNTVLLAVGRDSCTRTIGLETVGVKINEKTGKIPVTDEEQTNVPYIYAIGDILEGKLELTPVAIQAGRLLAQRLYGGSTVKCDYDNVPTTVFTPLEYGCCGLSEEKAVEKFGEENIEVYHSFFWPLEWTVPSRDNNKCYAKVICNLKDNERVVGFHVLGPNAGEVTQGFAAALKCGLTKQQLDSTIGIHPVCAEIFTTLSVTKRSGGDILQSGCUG
Nature of the data set: Inhibition of recombinant rat TrxR1 incubated for 1 hr in presence of NADPH by microplate reader analysis.

The test system of data set [2] is HCT-116. Nature of the data set: Antiproliferative activity against human HCT-116 cells assessed as cell growth inhibition incubated for 48 hrs by CCK-8 assay. It counts as functional, cell-based. Particulars: HCT-116, 48 h. A general note: Tetrazolium dyes change colour on reduction, which living cells bring about.
In data set [3] the target is Indoleamine 2,3-dioxygenase 1 (Homo sapiens, UniProt P14902). Nature of the data set: Inhibition of recombinant human IDO1 using L-Trp as substrate incubated for 1 hr.
Chain of Indoleamine 2,3-dioxygenase 1 (P14902 whole entry): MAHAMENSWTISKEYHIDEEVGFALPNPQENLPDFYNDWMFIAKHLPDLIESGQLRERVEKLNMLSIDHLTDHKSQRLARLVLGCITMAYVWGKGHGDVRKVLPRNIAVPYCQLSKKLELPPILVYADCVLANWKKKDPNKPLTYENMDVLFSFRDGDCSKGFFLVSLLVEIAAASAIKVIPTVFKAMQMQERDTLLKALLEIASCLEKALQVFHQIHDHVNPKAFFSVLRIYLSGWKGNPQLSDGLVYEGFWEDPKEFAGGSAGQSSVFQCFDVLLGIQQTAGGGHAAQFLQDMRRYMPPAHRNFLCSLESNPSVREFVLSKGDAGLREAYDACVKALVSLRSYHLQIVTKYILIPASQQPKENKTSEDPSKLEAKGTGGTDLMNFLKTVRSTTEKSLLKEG
Data set [4] deals with T2, Indoleamine 2,3-dioxygenase 2 (Homo sapiens, UniProt Q6ZQW0).
T2 sequence (Q6ZQW0 whole entry): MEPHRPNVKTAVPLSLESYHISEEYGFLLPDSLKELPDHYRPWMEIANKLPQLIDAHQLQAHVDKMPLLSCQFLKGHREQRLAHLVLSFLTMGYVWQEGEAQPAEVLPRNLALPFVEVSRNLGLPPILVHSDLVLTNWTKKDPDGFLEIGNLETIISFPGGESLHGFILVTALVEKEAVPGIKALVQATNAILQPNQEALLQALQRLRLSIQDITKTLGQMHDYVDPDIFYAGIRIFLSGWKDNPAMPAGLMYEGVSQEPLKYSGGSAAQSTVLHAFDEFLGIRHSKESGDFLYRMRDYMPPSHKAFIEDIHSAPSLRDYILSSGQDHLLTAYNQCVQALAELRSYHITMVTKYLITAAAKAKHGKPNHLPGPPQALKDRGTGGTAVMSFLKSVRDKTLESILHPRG
Nature of the data set: Inhibition of IDO2 (unknown origin) using D-Trp as substrate incubated for 1 hr.

The nature of data set [5]: Cytotoxicity against human HCT-116 cells incubated for 48 hrs by CCK-8 assay. Format: toxicity, cell-based.
Data set [6] can be described thus: Cytotoxicity against mouse CT26 cells incubated for 48 hrs by CCK-8 assay. It counts as toxicity, cell-based.
Data set [7] in a line: Cytotoxicity against human HeLa cells incubated for 48 hrs by CCK-8 assay. It counts as toxicity, cell-based.
Data set [8] can be described thus: Toxicity in athymic nude BALB/c mouse assessed as weight gain at 60 mg/kg, ig administered daily for 28 days and measured every 4 days. It counts as organism-based. Conditions: in vivo, po, 672 h, time 28 day.
Data set [9] deals with CT26. Description: Antitumor activity against mouse CT26 cells implanted in […] BALB/c mouse assessed as reduction in nTreg lymphocytes at 60 mg/kg, ig administered daily for 28 days and measured every 4 days by immunofluorescence analysis. It counts as functional, organism-based. Conditions: time 28.0 day.
Data set [10] relates to CT26. Nature of the data set: Antitumor activity against mouse CT26 cells implanted in athymic nude BALB/c mouse assessed as reduction in proliferative nTreg lymphocytes at 60 mg/kg, ig administered daily for 28 days and measured every 4 days by immunofluorescence analysis. Format: functional, organism-based. Particulars: time 28.0 day.
Data set [11] addresses T3, Thioredoxin reductase 1, cytoplasmic (Mus musculus) (UniProt Q9JMH6).
T3 sequence (whole entry): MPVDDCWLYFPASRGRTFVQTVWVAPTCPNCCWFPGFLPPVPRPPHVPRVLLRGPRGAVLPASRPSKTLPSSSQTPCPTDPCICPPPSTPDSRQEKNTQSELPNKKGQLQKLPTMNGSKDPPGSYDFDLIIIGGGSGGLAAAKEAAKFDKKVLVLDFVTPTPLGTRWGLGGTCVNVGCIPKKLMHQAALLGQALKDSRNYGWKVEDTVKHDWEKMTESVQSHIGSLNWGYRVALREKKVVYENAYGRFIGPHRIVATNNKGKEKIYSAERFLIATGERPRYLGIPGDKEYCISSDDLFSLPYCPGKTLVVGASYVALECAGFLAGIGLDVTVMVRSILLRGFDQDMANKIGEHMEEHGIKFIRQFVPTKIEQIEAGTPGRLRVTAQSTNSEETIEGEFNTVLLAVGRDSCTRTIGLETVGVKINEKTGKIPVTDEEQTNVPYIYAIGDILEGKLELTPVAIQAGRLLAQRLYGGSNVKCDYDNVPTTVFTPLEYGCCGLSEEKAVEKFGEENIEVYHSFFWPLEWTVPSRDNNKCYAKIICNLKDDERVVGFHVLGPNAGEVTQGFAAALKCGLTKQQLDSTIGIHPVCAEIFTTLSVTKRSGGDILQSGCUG
Nature of the data set: Inhibition of TrxR1 in mouse CT26 cells incubated for 24 hrs. Format: cell-based.

Data set [12] concerns CT26. Description: Antitumor activity against mouse CT26 cells implanted in […] BALB/c mouse assessed as increase in CD4 Th lymphocytes at 60 mg/kg, ig administered daily for 28 days and measured every 4 days. Conditions: time 28.0 day. It counts as functional, organism-based.
Data set [13] deals with Indoleamine 2,3-dioxygenase 1 (Mus musculus) (UniProt P28776). Nature of the data set: In vivo inhibition of IDO1 in C57BL/6 mouse assessed as reduction in plasma Kyn level at 60 mg/kg, po administered once daily by LC-MS/MS analysis. Format: functional, organism-based.
Chain of Indoleamine 2,3-dioxygenase 1 (Mus musculus) (P28776 whole entry, looked up): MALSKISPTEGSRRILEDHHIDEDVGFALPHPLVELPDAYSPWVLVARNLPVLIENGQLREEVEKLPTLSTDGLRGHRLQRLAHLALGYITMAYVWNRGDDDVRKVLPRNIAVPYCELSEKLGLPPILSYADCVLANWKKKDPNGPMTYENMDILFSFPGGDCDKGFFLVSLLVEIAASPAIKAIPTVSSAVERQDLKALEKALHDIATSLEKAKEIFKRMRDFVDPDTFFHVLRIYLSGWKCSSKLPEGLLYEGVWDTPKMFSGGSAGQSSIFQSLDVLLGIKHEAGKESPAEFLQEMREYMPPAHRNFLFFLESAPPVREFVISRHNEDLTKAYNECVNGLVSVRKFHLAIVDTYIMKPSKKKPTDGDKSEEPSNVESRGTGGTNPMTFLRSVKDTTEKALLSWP
Data set [14] has as its target T4, Thioredoxin reductase 1, cytoplasmic (Homo sapiens) (UniProt Q16881).
T4 sequence (whole entry): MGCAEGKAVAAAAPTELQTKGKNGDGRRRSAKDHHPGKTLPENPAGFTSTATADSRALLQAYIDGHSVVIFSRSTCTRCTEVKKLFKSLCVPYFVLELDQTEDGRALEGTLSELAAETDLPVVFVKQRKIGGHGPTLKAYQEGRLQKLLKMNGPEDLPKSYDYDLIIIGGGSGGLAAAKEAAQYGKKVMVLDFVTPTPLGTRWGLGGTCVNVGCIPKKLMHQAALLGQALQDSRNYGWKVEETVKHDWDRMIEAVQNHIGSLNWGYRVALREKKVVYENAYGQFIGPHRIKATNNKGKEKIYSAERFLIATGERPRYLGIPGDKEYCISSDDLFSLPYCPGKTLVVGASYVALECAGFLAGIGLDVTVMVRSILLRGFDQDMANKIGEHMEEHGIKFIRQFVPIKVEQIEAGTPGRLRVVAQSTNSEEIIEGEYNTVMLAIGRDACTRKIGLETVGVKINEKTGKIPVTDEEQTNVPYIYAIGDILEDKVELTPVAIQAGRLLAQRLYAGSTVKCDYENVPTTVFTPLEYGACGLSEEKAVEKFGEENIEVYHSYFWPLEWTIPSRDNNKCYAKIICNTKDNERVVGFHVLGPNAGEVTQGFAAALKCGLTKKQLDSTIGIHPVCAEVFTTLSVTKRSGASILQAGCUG
Description: Inhibition of TrxR1 in human HCT-116 cells incubated for 24 hrs. It counts as cell-based.

The target of data set [15] is T4, Thioredoxin reductase 1, cytoplasmic (Homo sapiens). Nature of the data set: Inhibition of TrxR1 in human HeLa cells incubated for 24 hrs. Format: cell-based.
For data set [16], the target named is Indoleamine 2,3-dioxygenase 1 (Mus musculus) (UniProt P28776). Nature of the data set: In vivo inhibition of IDO1 in C57BL/6 mouse assessed as reduction in plasma Kyn/Trp ratio at 60 mg/kg, po administered once daily by LC-MS/MS analysis. Format: functional, organism-based.
For data set [17], the system named is CT26. Description: Antitumor activity against mouse CT26 cells implanted in athymic nude BALB/c mouse assessed as reduction in CD4+CD25+Foxp3+ lymphocytes at 60 mg/kg, ig administered daily for 28 days and measured every 4 days by immunofluorescence analysis. Format: functional, organism-based. Conditions: time 28.0 day.
The target in data set [18] is Indoleamine 2,3-dioxygenase 1 (Mus musculus) (UniProt P28776). Description: In vivo inhibition of IDO1 in C57BL/6 mouse assessed as increase in plasma Trp level at 60 mg/kg, po administered once daily by LC-MS/MS analysis. It counts as functional, organism-based.
For data set [19], the system named is CT26. Nature of the data set: Antitumor activity against mouse CT26 cells implanted in […] BALB/c mouse assessed as increase in CD8 T lymphocytes at 60 mg/kg, ig administered daily for 28 days and measured every 4 days. It counts as functional, organism-based. Conditions: time 28.0 day.

Usually IC50 stands for the concentration that gives 50% inhibition.

Active and inactive are the calls of the source. The rule behind the calls is not given here.

Consider `O=C(Cc1ccccc1)Nc1nnc(CCCNc2nonc2/C(=N\O)NCCc2ccc(Cl)cc2)s1`, for which the figures for the IC50 in data set [1], in data set [2] and in data set [3] were 6.46 µM, 4.65 µM and 7.88 µM, respectively.

Consider `O=C(Cc1cccc(OC(F)(F)F)c1)Nc1nnc(CCCNc2nonc2/C(=N\O)Nc2ccc(F)c(Br)c2)s1`, for which the IC50 came out at 3.69 µM in data set [1], 5.25 µM in data set [2] and 0.12 µM in data set [3].

`O=C(Cc1ccc(O)cc1)Nc1nnc(CCCNc2nonc2/C(=N\O)NCCc2ccc(Cl)cc2)s1`: the values for the IC50 in [1], in [2] and in data set [3] were 1.96 µM, 4.42 µM and 10.3 µM, respectively.

Turning to `O=C(Cc1ccccc1)Nc1nnc(CCCNc2nonc2/C(=N\O)Nc2ccc(F)c(Br)c2)s1`, the results for the IC50 in data set [1], in [2] and in [3] were 3.74 µM, 5.98 µM and 0.06 µM, respectively.

On to `O=C(Cc1cccc(OC(F)(F)F)c1)Nc1nnc(CCCNc2nonc2/C(=N\O)NCCc2ccc(Br)cc2)s1`, for which the IC50 in [1] is 10.5 µM; in [2], 3.1 µM; in data set [3], 5.58 µM.

Turning to `O=C(Cc1cccc(OC(F)(F)F)c1)Nc1nnc(CCCNc2nonc2/C(=N\O)NCCc2ccc(Cl)cc2)s1`, the IC50 in data set [1] was determined as 7.63 µM; in data set [2], 3.79 µM; in data set [3], 17.5 µM.

In the case of `O=C(Cc1ccc(O)cc1)Nc1nnc(CCCNc2nonc2/C(=N\O)NCCc2ccc(Br)cc2)s1`, the IC50 was determined as 18.3 µM in data set [1], 4.62 µM in [2] and 10.1 µM in data set [3].

`O=C(Cc1ccc(O)cc1)Nc1nnc(CCCNc2nonc2/C(=N\O)NCCc2ccc(F)cc2)s1`: the IC50 in [1] stood at 13.5 µM; in [2], 5.31 µM; in [3], 4.37 µM.

`NS(=O)(=O)NCCNc1nonc1C(=NO)Nc1ccc(F)c(Br)c1` [EPACADOSTAT]: 0.63 µM corresponded to half-maximal inhibition in [4] (IC50). The IC50 at 48 h in data set [5] is 0.26 µM; in data set [6], 1.49 µM; in [7], 4.63 µM. Further, the Activity entry in [8] is reported as “Toxic”.

Consider `O=C(Cc1ccccc1)Nc1nnc(CCCNc2nonc2/C(=N\O)NCCc2ccc(F)cc2)s1`, for which the figures for the IC50 in data set [1], in data set [2] and in [3] were 25.2 µM, 5.59 µM and 13.2 µM, respectively.

In the case of `NS(=O)(=O)NCCNc1nonc1/C(=N/O)Nc1ccc(F)c(Br)c1`, the result in data set [9], in data set [10], in data set [12], in [13], in data set [16] and in [17] was Active. Also, the outcome in data set [18] and in [19] was Active. Also, the inhibition result in [11], in data set [14] and in [15] was “inactive” in each case.
